Results from PMC524486, “Branched-chain amino acid aminotransferase and methionine formation in Mycobacterium tuberculosis” (BMC Microbiology, 2004).
In brackets after ≈: the same amount, converted by molar mass. Where two headings read alike, the source gives them in different places.

Tests used:
[1] = tested on: M. tuberculosis branched-chain aminotransferase; type: biochemical, Mycobacterium tuberculosis H37Rv; conditions: for amino donor activity for Met formation from KMTB: 2 mM individual amino acid, 1 mM KMTB, 30 min at 37°C (Figure 5); for Km: read-out: Apparent Km
M. tuberculosis BCAT = M. tuberculosis BCAT (Mycobacterium tuberculosis, UniProt P9WQ75); experiment: Inhibition of BCAT-catalysed Met formation by aminooxy compounds; type: biochemical, Mycobacterium tuberculosis H37Rv; conditions: for inhibition of Met formation, ranking at 0.1 mM / inhibition of Met formation: 2.0 mM leucine; for inhibition of Met formation, ranking at 0.1 mM: 0.1 mM inhibitor (Figure 6); for type of inhibition: fit to competitive, uncompetitive and mixed inhibition equations; for inhibition of Met formation: 0.1 or 1.0 mM inhibitor (Figure 6)
M. tuberculosis BCAT, sequence (P9WQ75 whole entry, looked up): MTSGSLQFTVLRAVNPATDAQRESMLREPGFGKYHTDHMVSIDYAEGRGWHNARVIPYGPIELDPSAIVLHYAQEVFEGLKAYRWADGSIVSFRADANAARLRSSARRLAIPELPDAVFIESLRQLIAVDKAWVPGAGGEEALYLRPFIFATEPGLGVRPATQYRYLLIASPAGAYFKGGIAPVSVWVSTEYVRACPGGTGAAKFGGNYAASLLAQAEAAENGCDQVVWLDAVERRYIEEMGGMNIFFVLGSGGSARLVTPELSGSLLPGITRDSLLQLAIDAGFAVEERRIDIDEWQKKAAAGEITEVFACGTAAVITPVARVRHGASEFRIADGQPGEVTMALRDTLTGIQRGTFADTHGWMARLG
Method: Aminotransferase activities were assayed by an HPLC method. 5 or 10 μl of recombinant enzyme was added to 100 μl of substrate mix (100 mM PO4 (pH 7.4)/50 μM PLP/various concentrations of amino acid/various concentrations of keto acid) and incubated for 30 min at 37°C. The samples were then stored at -20°C until analysis by HPLC. All samples were analysed by pre-column derivatisation and reverse-phase HPLC. 10 μl of sample was mixed with 50 μl of 400 mM borate pH 10.5 and then with 10 μl of 10 mg/ml o-phthalaldehyde/12 μl/ml mercaptopropionate/400 mM borate pH 10.5 prior to the injection of 7.0 μl onto a 2.1 × 200 mm ODS-AA column (Agilent; Mississauga, ON, Canada). The column was eluted using 2.72 mg/ml sodium acetate pH 7.2/0.018% v/v triethylamine/0.3% v/v tetrahydrofuran as Buffer A and 2.72 mg/ml sodium acetate pH 7.2/40% v/v methanol/40% v/v acetonitrile as Buffer B with a linear gradient of 0 – 17% B over 16 min followed by a linear gradient of 17–100% B over 1 min and 6.0 min at 100% B. The flow rate was 0.45 ml/min from 0 – 16 min and 0.80 ml/min from 17–30 min. The elution of derivatised amino acids was monitored at 338 nm and fluorometrically with an excitation of 338 nm and an emission of 450 nm. All separations were performed on an Agilent 1100 HPLC equipped with an autosampler, variable wavelength ultraviolet/visible spectrophotometric detector, fluorescence detector, and Chemstation operating system.
Initial inhibition studies screened 13 aminooxy compounds against M. tuberculosis BCAT using 2.0 mM Leu/1.0 mM KMTB/0.1 or 1.0 mM inhibitor in the enzyme incubation. […] These reactions involved 0.5, 1.0, 2.0, or 3.0 mM Leu and 1.0 mM KMTB in the reaction mixture together with 0, 25, 50, 75, 100, 150, 200 μM of inhibitor. The Ki values were determined by non-linear curve fitting with the Scientist software programmed with competitive, uncompetitive, and mixed inhibition equations [25].

M. marinum = experiment: In vitro growth inhibition, microtitre doubling dilution, A650 nm; type: cell-based, M. marinum Aronson (ATCC927)
M. tuberculosis [2] = experiment: as above; type: cell-based, M. tuberculosis H37Rv
M. tuberculosis [3] = conditions: older study, other medium, cited from earlier work
[4] = varying substrate, 10 mM cosubstrate KMTB, Met formation
[5] = varying substrate, 10 mM cosubstrate KG, Glu formation
[6] = varying keto acid substrate, 10 mM cosubstrate Leu
[7] = 0.5-3.0 mM Leu, 1.0 mM KMTB, 0-200 μM inhibitor
[8] = read-out: Kic (competitive component of mixed-type inhibition), 0.5-3.0 mM Leu, 1.0 mM KMTB, 0-200 μM inhibitor
[9] = M. marinum, n = 8, 8 days at 30°C, Middlebrook 7H9
[10] = M. marinum, n = 8, 8 days at 30°C, Middlebrook 7H9, read-out: IC50
[11] = M. tuberculosis, n = 6, 14 days at 37°C, Middlebrook 7H9
[12] = M. tuberculosis, n = 6, 14 days at 37°C, Middlebrook 7H9, read-out: IC50
[13] = Mycobacterium tuberculosis, 336 h

Structure (SMILES): N[C@@H](CCC(=O)O)C(=O)O [Glu, glutamate]
- amino donor activity for Met formation from KMTB [1]: also active as amino donors
- Apparent Vmax [1, 4]: 5.70 ± 1.20 μmol/min/mg protein
- Km [1, 4]: 9530 ± 3430 µM

Structure (SMILES): CC[C@H](C)[C@H](N)C(=O)O [Ile, Isoleucine]
- amino donor activity for Met formation from KMTB [1]: most effective substrates
- Apparent Vmax [1, 5]: 14.35 ± 1.08 μmol/min/mg protein
- Km [1, 5]: 6160 ± 1140 µM
- Apparent Vmax [1, 4]: 4.28 ± 0.32 μmol/min/mg protein
- Km [1, 4]: 2850 ± 560 µM

Structure (SMILES): O=C(O)CCC(=O)C(=O)O [KG, ketoglutarate]
- Apparent Vmax [1, 6]: 12.80 ± 1.12 μmol/min/mg protein
- Km [1, 6]: 6950 ± 1440 µM

Structure (SMILES): CSCCC(=O)C(=O)O [KMTB, ketomethiobutyrate]
- Apparent Vmax [1, 6]: 4.22 ± 0.72 μmol/min/mg protein
- Km [1, 6]: 4200 ± 1790 µM

Structure (SMILES): CC(C)C[C@H](N)C(=O)O [Leu, leucine]
- amino donor activity for Met formation from KMTB [1]: most effective substrates
- Apparent Vmax [1, 5]: 13.44 ± 0.84 μmol/min/mg protein
- Km [1, 5]: 6020 ± 940 µM
- Apparent Vmax [1, 4]: 3.65 ± 0.43 μmol/min/mg protein
- Km [1, 4]: 2500 ± 900 µM

Structure (SMILES): CC(C)(C)ON [O-(t-butyl)hydroxylamine]
- inhibition of Met formation, ranking at 0.1 mM (M. tuberculosis BCAT; 1.0 mM KMTB): most active
- Kiu (uncompetitive component of mixed-type inhibition) (M. tuberculosis BCAT; [7]): 85.60 ± 44.79 µM
- type of inhibition (M. tuberculosis BCAT): mixed-type inhibition
- Ki (M. tuberculosis BCAT; [8]): 11 ± 2.76 µM
- MIC (M. marinum; [9]): 10000 µM
- IC50 (M. marinum; [10]): 43.2 ± 10.5 µM
- MIC (M. tuberculosis [2]; [11]): 10000 µM
- IC50 (M. tuberculosis [2]; [12]): 131 ± 23.1 µM

Structure (SMILES): C=CCON [O-allylhydroxylamine]
- inhibition of Met formation, ranking at 0.1 mM (M. tuberculosis BCAT; 1.0 mM KMTB): most active
- Kiu (uncompetitive component of mixed-type inhibition) (M. tuberculosis BCAT; [7]): > 200 µM
- type of inhibition (M. tuberculosis BCAT): mixed-type inhibition
- Ki (M. tuberculosis BCAT; [8]): 21.6 ± 11.1 µM
- MIC (M. marinum; [9]): 78 µM
- IC50 (M. marinum; [10]): 8.49 ± 1.96 µM
- MIC (M. marinum; M. marinum, read-out: MIC): 78 µM
- MIC (M. tuberculosis [2]; M. tuberculosis, as stated in text (present data), read-out: MIC): 156 µM
- MIC (M. tuberculosis [2]; [11]): 156 µM
- IC50 (M. tuberculosis [2]; [12]): 39.2 ± 2.01 µM

Structure (SMILES): NOCc1ccccc1 [O-benzylhydroxylamine]
- inhibition of Met formation, ranking at 0.1 mM (M. tuberculosis BCAT; 1.0 mM KMTB): most active
- Kiu (uncompetitive component of mixed-type inhibition) (M. tuberculosis BCAT; [7]): 84.08 ± 31.91 µM
- type of inhibition (M. tuberculosis BCAT): mixed-type inhibition
- Ki (M. tuberculosis BCAT; [8]): 8.2 ± 2.56 µM
- MIC (M. marinum; [9]): 1250 µM
- IC50 (M. marinum; [10]): 411 ± 67.1 µM
- MIC (M. tuberculosis [2]; [11]): 1250 µM
- IC50 (M. tuberculosis [2]; [12]): 468 ± 62.8 µM

Structure (SMILES): C[Si](C)(C)ON [O-trimethylsilylhydroxylamine]
- inhibition of Met formation (M. tuberculosis BCAT; 1.0 mM KMTB): With the exception of O-trimethylsilylhydroxylamine, all of the compounds inhibited Met formation to some extent

Structure (SMILES): N[C@@H](Cc1ccccc1)C(=O)O [Phe, phenylalanine]
- amino donor activity for Met formation from KMTB [1]: also active as amino donors
- Apparent Vmax [1, 4]: 2.17 ± 0.22 μmol/min/mg protein
- Km [1, 4]: 7440 ± 1400 µM

Structure (SMILES): N[C@@H](Cc1ccc(O)cc1)C(=O)O [Tyrosine]
- amino donor activity for Met formation from KMTB [1]: much lesser ability to transaminate KMTB

Structure (SMILES): CC(C)[C@H](N)C(=O)O [Val, valine]
- amino donor activity for Met formation from KMTB [1]: most effective substrates
- Apparent Vmax [1, 5]: 11.82 ± 0.80 μmol/min/mg protein
- Km [1, 5]: 5790 ± 990 µM
- Apparent Vmax [1, 4]: 2.58 ± 0.41 μmol/min/mg protein
- Km [1, 4]: 1770 ± 860 µM

Structure (SMILES): NOCC[C@H](N)C(=O)O [canaline]
- inhibition of Met formation (M. tuberculosis BCAT; 1.0 mM KMTB): not a particularly good inhibitor
- IC50 (M. marinum; Mycobacterium marinum, 192 h): 335 ± 13.6 µM
- MIC (M. marinum; Mycobacterium marinum, 192 h): 1250 µM
- IC50 (M. tuberculosis [2]; [13]): 273 ± 14.6 µM
- MIC (M. tuberculosis [2]; [13]): 1250 µM

Structure (SMILES): NOCC(=O)O [carboxymethoxylamine]
- Ki (M. tuberculosis BCAT): 21 ± 7.27 µM
- inhibition of Met formation, ranking at 0.1 mM (M. tuberculosis BCAT; 1.0 mM KMTB): most active
- Kiu (uncompetitive component of mixed-type inhibition) (M. tuberculosis BCAT; [7]): 142.42 ± 69.76 µM
- type of inhibition (M. tuberculosis BCAT): mixed-type inhibition
- IC50 (M. marinum; Mycobacterium marinum, 192 h, M. marinum, n = 8, 8 days at 30°C, Middlebrook 7H9, read-out: IC50): 89.3 ± 7.65 µM
- MIC (M. marinum; Mycobacterium marinum, 192 h, M. marinum, n = 8, 8 days at 30°C, Middlebrook 7H9, read-out: MIC): 313 µM
- IC50 (M. tuberculosis [2]; Mycobacterium tuberculosis, 336 h, M. tuberculosis, n = 6, 14 days at 37°C, Middlebrook 7H9, read-out: IC50): 71 ± 7.83 µM
- MIC (M. tuberculosis [2]; Mycobacterium tuberculosis, 336 h, M. tuberculosis, n = 6, 14 days at 37°C, Middlebrook 7H9, read-out: MIC): 313 µM
- MIC (M. tuberculosis [2]; Mycobacterium tuberculosis, M. tuberculosis, as stated in text (present data), read-out: MIC): 313 µM
- MIC (M. tuberculosis [3]; ref 35): 910 µM (≈ 82.9 µg/mL)
- MIC (M. tuberculosis [3]; ref 37): 170 µM (≈ 15.5 µg/mL)

Structure (SMILES): [H]/N=C(/N)N[C@H]1[C@H](O)[C@@H](O)[C@H](O[C@@H]2O[C@@H](C)[C@](O)(C=O)[C@H]2O[C@@H]2O[C@@H](CO)[C@H](O)[C@@H](O)[C@@H]2NC)[C@@H](N/C(N)=N\[H])[C@@H]1O [streptomycin]
- MIC (M. marinum; Mycobacterium marinum, M. marinum, read-out: MIC): 8 µg/mL
- MIC (M. tuberculosis [2]; Mycobacterium tuberculosis, M. tuberculosis, read-out: MIC): 2 µg/mL

Structure (SMILES): N[C@@H](Cc1c[nH]c2ccccc12)C(=O)O [tryptophan]
- amino donor activity for Met formation from KMTB [1]: much lesser ability to transaminate KMTB
